# Laboratory results from patent US20040097544A1, “Use of an inhibitor of the Na+/H+ exchanger for the production of a medicament for the treatment or prophylaxis of disturbances of the central nervous system” (Hoechst Marion Roussel Deutschland GMBH, priority 1997, published 2004).
# Tested on: CA3 neurons of the hippocampus
# Assay: Decrease in neuronal excitability on hippocampus slice preparations of CA3 neurons, intracellular leads
# Type: cell-based, guinea-pigs
# Protocol: In the model of CA3 neurons in hippocampus tissue slices, NHE inhibitors with their antiepileptic and antipsychotic therapy potential inhibit epileptiform discharges. Hyperexcitability of neurons in the form of so-called epileptiform discharges was triggered by the action of bicuculline, caffeine or low magnesium concentrations. […] The decrease in neuronal excitability was tested on slice preparations of CA3 neurons of the hippocampus (guinea-pigs). The excitation-inhibiting action of cariporide (HOE 642) was investigated in 8 experiments. The neuronal excitability was assessed with intracellular leads with the aid of the spontaneous bioelectric activity and the pharmacologically produced epileptiform activity which had been induced by bicuculline, caffeine or absence of magnesium.
smiles,measurement,setting,value
CC(C)c1ccc(C(=O)NC(=N)N)cc1S(C)(=O)=O [cariporide],inhibition of the epileptiform discharges,"CA3 neurons in hippocampus tissue slices, discharges triggered by bicuculline, caffeine or low magnesium concentrations",marked inhibition
same,duration of the reduction of spontaneous action potential and paroxysmal depolarization frequency,after wash-in of 0.1-0.5 mM cariporide,more than 45 minutes
same,reduction of the frequency of the spontaneous action potentials,"after wash-in of 0.1-0.5 mM cariporide, reversible, 8 experiments",30-80%
same,reduction of the frequency of periodic paroxysmal depolarization,"after wash-in of 0.1-0.5 mM cariporide, reversible, epileptiform activity induced by bicuculline, caffeine or absence of magnesium, 8 experiments",30-80%
